Experimental data published in patent US20040053966A1, “Chemical derivatives and their application as antitelomerase agent” (Aventis Pharms S.A., priority 1999, published 2004).
Structures can show the parent of a compound that is named as a salt.

Key:
[1] = tested on: human telomerase (HL60 cell extract); experiment: Antitelomerase activity, TRAP (extension of oligonucleotide TS and PCR amplification); type: biochemical; settings: telomerase extract from HL60 cells
[2] = tested on: G-quadruplex of oligonucleotide GGGTTAGGGTTAGGGTTAGGG (3.5 repeats of the human telomeric motif); experiment: G-quadruplex stabilizing activity, fluorescence Tm (FAM+DABCYL oligonucleotide); type: binding; settings: test product 1 μM, oligonucleotide 0.2 μM, 0.1 M LiCl, 10 mM cacodylate pH 7.6; reference without product 44° C.
From the text: The G-quadruplex stabilizing activity may be determined by a method using the formation of a complex with fluorescein of which the experimental protocol is described below. Oligonucleotides […] The oligonucleotide FAM+DABCYL carries the catalogue reference OL-0371-0802. It has the sequence: […] The fluorescein is attached to the 5' end, the DABCYL to the 3' end, by the chemical arms described by Eurogentec. The concentration of the samples is checked by spectrophotometry, recording the absorbance spectrum between 220 and 700 nm and using the molar extinction coefficient provided by the supplier. Buffers All the experiments were carried out in a 10 mM sodium cacodylate buffer pH 7.6 containing 0.1 M lithium chloride (or sodium chloride). The absence of fluorescent contamination in the buffer was checked beforehand. The fluorescent oligonucleotide is added at the final concentration of 0.2 μM. Study of Fluorescence All the measurements of fluorescence were carried out on a Spex Fluorolog DMlB apparatus, using an excitation line width of 1.8 nm and an emission line width of 4.5 nm. The samples are placed in a microquartz cuvette of 0.2×1 cm. The temperature of the sample is controlled by an external water bath. The oligonucleotide alone was analysed at 20, 30, 40, 50, 60, 70 and 80° C. The emission spectra are recorded using an excitation wavelength of 470 nm. The excitation spectra are recorded using either 515 nm or 588 nm as emission wavelength. The spectra are corrected for the response of the instrument by reference curves. A high extinction (80-90%) of the fluorescence of fluorescein at room temperature is observed, in agreement with an intramolecular folding of the oligonucleotide at 20° C. in the form of a G-quadruplex, which induces juxtaposition of its [NT] ends which are respectively linked to fluorescein and to DABCYL. This juxtaposition causes an already-described phenomenon of extinction of fluorescence which is used for “molecular beacons”. Fluorescence Tm: […] The samples are then allowed to incubate for at least 1 hour at 20° C. before each measurement. The use of longer incubation times (up to 24 hours) has no influence on the result obtained. Each experiment allows the measurement of only one sample. The latter is first incubated at an initial temperature of 20° C., heated to 80° C. over 38 minutes, left for 5 minutes at 80° C. and then cooled to 20° C. over 62 minutes. During this time, the fluorescence is measured simultaneously at two emission wavelengths (515 nm and 588 nm) using 470 nm as excitation wavelength. A measurement is carried out every 30 seconds. The temperature of the water bath is recorded in parallel, and the fluorescence profile as a function of the temperature is reconstituted from these values. The fluorescence profiles are then normalized between 20° C. and 80° C., and the temperature for which the intensity of emission at 515 nm is the mean of those at high and low temperature is called Tm. Under these conditions, the Tm of the reference sample without addition of product is 44° C. in a lithium chloride buffer. This temperature is increased to more than 55° C. in a sodium chloride buffer. The addition of a G-quadruplex-stabilizing compound induces an increase in the Tm. This increase is judged to be significant if it is greater than […].

A549 cells = experiment: Cytotoxic activity on human tumour line A549 (neutral red); type: cell-based; settings: Homo sapiens, A549, 96 h, 96 hours incubation, read-out: Cytotox. A549 IC50
Protocol: The Cytotoxic Biological Activity on Human Tumour Lines is Determined According to the Following Experimental Protocol:
The cells at the exponential growth phase are trypsinized, washed in 1× PBS and are inoculated in 96-well microplates (Costar) in an amount of 4×10^4 cells/ml for A549 and of 1.5×10^4 cells/ml (0.2 ml/well) and then incubated for 96 hours in the presence of variable concentrations of product to be studied (10, 1, 0.1 and 0.01 μg/ml, each point in quadruplicate). 16 hours before the end of the incubation, 0.02% final of neutral red is added to each well. At the end of the incubation, the cells are washed with 1× PBS and lysed with 1% sodium lauryl sulphate. The cellular incorporation of the dye, which reflects cellular growth, is evaluated by spectrophotometry at a wavelength of 540 nm for each sample with the aid of a Dynatech MR5000 reading apparatus.
(compound value−blank value/cell control value−blank value)×100.

SMILES	IC50 [1] [nM]	FLUORESCENCE Tm [2] [° ° C.]	IC50 (A549 cells) [µM]	G4 Tm [2] [°C]
Cc1cc(N)c2cc(Nc3nc(N)nc(Nc4ccc5c(c4)c(N)cc(C)[n+]5C)n3)ccc2[n+]1C [Example 1, 2-amino-bis-4,6-[(1′-methyl-4′-amino-6′-quinaldinio)amino]triazine dichloride]	250	–	–	–
Cc1cc(N)c2cc(Nc3nc(Nc4ccc5c(c4)c(N)cc(C)[n+]5C)nc(N(C)C)n3)ccc2[n+]1C [Example 3, 2-dimethylamino-bis-4,6-[(1′-methyl-4′-amino-6′-quinaldinio)amino]triazine dichloride]	220	52	–	–
C[n+]1cccc2cc(Nc3nc(N)nc(Nc4ccc5c(ccc[n+]5C)c4)n3)ccc21 [Example 5, 2-amino-bis-4,6-[(1′-methyl-6′-quinolinio)amino]triazine dichloride]	130	57	–	–
Cc1cc(N)c2cc(Nc3nc(N)nc(Nc4ccc5nc(C)cc(N)c5c4)n3)ccc2n1 [Example 8, 2-amino-bis-4,6-[(4′-amino-6′-quinaldinyl)amino]triazine trihydrochloride]	51	–	9.1	–
N=C(N)c1ccc(Nc2nc(N)nc(Nc3ccc(C(=N)N)cc3)n2)cc1 [Example 9, 2-Amino-bis-4,6-(p-amidinoanilino)triazine trihydrochloride]	740	–	0.53	–
CSc1nc(Nc2ccc3c(c2)c(N)cc(C)[n+]3C)nc(Nc2ccc3c(c2)c(N)cc(C)[n+]3C)n1 [Example 10, 2-methylthio-bis-4,6-[(1′-methyl-4′-amino-6′-quinaldinio)amino]triazine dichloride]	240	–	3.6	–
CSc1nc(Nc2ccc3nc(C)cc(N(C)C)c3c2)nc(Nc2ccc3nc(C)cc(N(C)C)c3c2)n1 [Example 12, 2-methylthio-bis-4,6-[(4′-dimethylamino-6′-quinaldinyl)amino]triazine hydrate]	41	70	–	–
Cc1cc(N)c2cc(NC(=O)Nc3ccc4nc(C)cc(N)c4c3)ccc2n1 [Example 13, N,N′-(4-amino-6-quinaldinyl)urea dihydrochloride]	720	–	–	–
C[n+]1ccc(NCCCCCNc2cc[n+](C)c3cc(Cl)ccc23)c2ccc(Cl)cc21 [Example 14, N^1,N^5-bis (7-chloro-1-methyl4-quinolinio)pentane-1,5-diamine diiodide]	–	–	6.5	–
Cc1cc(N)c2cc(NC(=N)NC(=N)Nc3ccc4nc(C)cc(N)c4c3)ccc2n1 [Example 16, 1,5-(4′-amino-6′-quinaldinyl)-biguanide trihydrochloride dihydrate]	–	52	5.8	–
CSc1nc(Nc2ccc3c(c2)c(=N)cc(C)n3C)nc(Nc2ccc3c(c2)c(=N)cc(C)n3C)n1 [Example 17-2]	950	–	6.1	–
COc1cc(C)nc2ccc(Nc3nc(Nc4ccc5nc(C)cc(OC)c5c4)nc(SC)n3)cc12 [Example 17-3]	3900	–	3.2	–
CSc1nc(Nc2ccc3nc(C)cc(N)c3c2)nc(N(C)c2ccc3ncccc3c2)n1 [Example 18-1]	3500	–	–	47
COc1cc(C)nc2ccc(Nc3nc(Nc4ccc5nc(C)cc(N)c5c4)nc(SC)n3)cc12 [Example 18-2]	2300	–	–	49
CSc1nc(Nc2ccc3nc(C)cc(C)c3c2)nc(Nc2ccc3nc(C)cc(N)c3c2)n1 [Example 18-4]	2200	–	–	50
CSc1nc(Nc2ccc3ncccc3c2)nc(Nc2ccc3nc(C)cc(N)c3c2)n1 [Example 18-5]	3400	–	–	47
CSc1nc(Nc2ccc3nc(C)cc(N)c3c2)nc(Nc2ccnc3ccccc23)n1 [Example 18-8]	3400	–	–	49
CCc1cc(Nc2nc(Nc3ccc4nc(C)cc(N)c4c3)nc(SC)n2)ccn1 [Example 18-12]	2800	–	–	–
CSc1nc(Nc2ccc3nc(C)ccc3c2)nc(Nc2ccc3nc(C)cc(N)c3c2)n1 [Example 18-13]	3400	–	–	–
CCN(CC)c1nc(Nc2ccncc2)nc(Nc2ccc3nc(C)cc(N)c3c2)n1 [Example 19-2]	2500	–	–	53
